Key:
[1] = Cytotoxicity against human Calu-3 cells assessed as reduction in cell viability incubated for 72 hrs by methylene blue assay; format: toxicity, cell-based
[2] = test system: SARS-CoV-2; assay: Antiviral activity against SARS-CoV-2 B.1 lineage isolate infected in human Calu-3 cells assessed as inhibition of viral replication infected with cells for 1 hr followed by compound addition and measured 24 hrs post infection by crystal violet staining based PFU assay; format: functional, organism-based; details: Severe acute respiratory syndrome coronavirus 2, B.1, Calu-3
[3] = test system: SARS-CoV-2; assay: Antiviral activity against SARS-CoV-2 B.1 lineage isolate infected in human Calu-3 cells assessed as inhibition of viral replication at 10 uM infected with cells for 1 hr followed by compound addition and measured 24 hrs post infection by crystal violet staining based PFU assay relative to control; format: functional; details: Severe acute respiratory syndrome coronavirus 2, B.1, Calu-3
[4] = Selectivity index, ratio of CC50 for cytotoxicity against human Calu-3 cells to EC50 for antiviral activity against SARS-CoV-2 B.1 lineage isolate infected in human Calu-3 cells; format: toxicity, cell-based; details: read-out: Ratio CC50/EC50
[5] = Cytotoxicity against human Calu-3 cells assessed as cell viability at 250 uM incubated for 72 hrs by methylene blue assay relative to control; format: toxicity, cell-based; details: read-out: Activity
[6] = test system: SARS-CoV-2; assay: Antiviral activity against SARS-CoV-2 B.1 lineage isolate infected in human Calu-3 cells assessed as inhibition of viral replication at 1 uM infected with cells for 1 hr followed by compound addition and measured 24 hrs post infection by crystal violet staining based PFU assay relative to control; format: functional; details: Severe acute respiratory syndrome coronavirus 2, B.1, Calu-3
[7] = test system: SARS-CoV-2; assay: Antiviral activity against SARS-CoV-2 B.1 lineage infected in human Calu-3 cells assessed as inhibition of viral replication; format: functional, organism-based; details: Severe acute respiratory syndrome coronavirus 2, B.1, Calu-3
[8] = test system: SARS-CoV-2; assay: Antiviral activity against SARS-CoV-2; format: functional, organism-based; details: Severe acute respiratory syndrome coronavirus 2
[9] = test system: SARS-CoV-2; assay: Antiviral activity against SARS-CoV-2 infected in human Calu-3 cells assessed as inhibition of viral replication incubated for 48 hrs by PFU assay; format: functional, organism-based; details: Severe acute respiratory syndrome coronavirus 2, Calu-3, 48 h
[10] = test system: SARS-CoV-2; assay: Antiviral activity against SARS-CoV-2 infected in human Calu-3 cells; format: functional, organism-based; details: Severe acute respiratory syndrome coronavirus 2, Calu-3
[11] = Cytotoxicity against African green monkey Vero E6 cells assessed as reduction in cell viability by CCK8 assay; format: toxicity, cell-based, Vero C1008; details: chlorocebus sabaeus
[12] = test system: SARS-CoV-2; assay: Potency index, ratio of myricetin EC50 to test compound EC50 for antiviral activity against SARS-CoV-2 infected in human Calu-3 cells assessed as inhibition of viral replication; format: functional, Severe acute respiratory syndrome coronavirus 2
[13] = test system: SARS-CoV-2; assay: Potency index, ratio of baicalein EC50 to test compound EC50 for antiviral activity against SARS-CoV-2 infected in human Calu-3 cells assessed as inhibition of viral replication; format: functional, Severe acute respiratory syndrome coronavirus 2
[14] = test system: SARS-CoV-2; assay: Antiviral activity against SARS-CoV-2 in presence of ritonavir; format: functional, organism-based; details: Severe acute respiratory syndrome coronavirus 2
[15] = test system: SARS-CoV-2; assay: Antiviral activity against SARS-CoV-2 in presence of lopinavir; format: functional, organism-based; details: Severe acute respiratory syndrome coronavirus 2

| Structure (SMILES) | CC50 at 72 h [1] [µM] | EC50 [2] [µM] | inhibition at 10 µM [3] [%] | selectivity ratio [4] | viability at 72 h, 250 µM [5] [%] | inhibition at 1 µM [6] [%] | other results |
| --- | --- | --- | --- | --- | --- | --- | --- |
| COc1cc(/C=C2\Oc3ccccc3C2=O)cc(OC)c1OC | > 250 | 5.8 | 66.4 | > 43.1 | ≥ 80 | – | – |
| O=C1/C(=C/c2ccccc2)Oc2ccccc21 [(Z)-AURONE] | – | – | 81.2 | – | ≥ 80 | < 1 | – |
| O=c1c(O)c(-c2ccc(O)cc2)oc2cc(O)cc(O)c12 [KAEMPFEROL] | – | – | – | – | – | – | EC50 [7]: 3 µM |
| O=C1/C(=C/c2ccc3c(c2)OCO3)Oc2ccccc21 | – | – | 44.6 | – | ≥ 80 | 69.5 | – |
| COc1ccc2c(c1)O/C(=C\c1ccccc1)C2=O | > 1000 | 0.49 | 99.7 | > 2000 | ≥ 80 | 59.1 | – |
| CC(C)C(=O)OC[C@H]1O[C@@H](n2cc/c(=N\O)[nH]c2=O)[C@H](O)[C@@H]1O [MOLNUPIRAVIR] | – | – | – | – | – | – | EC50 [8]: 2 µM |
| COCOc1ccc2c(c1)O/C(=C\c1ccc(OC)c(OCOC)c1)C2=O | 817 | 0.5 | 95.4 | 1630 | ≥ 80 | 77 | – |
| CCC(CC)COC(=O)[C@H](C)N[P@](=O)(OC[C@H]1O[C@@](C#N)(c2ccc3c(N)ncnn23)[C@H](O)[C@@H]1O)Oc1ccccc1 | – | – | – | – | – | – | EC50 [8]: 2.5 µM |
| COc1ccc(/C=C2\Oc3cc(O)ccc3C2=O)cc1 | > 250 | > 10 | 24 | – | ≥ 80 | – | – |
| COc1cccc2c1C(=O)/C(=C/c1ccccc1)O2 | – | – | 90.9 | – | ≥ 80 | < 1 | – |
| COc1ccc(/C=C2\Oc3cc(O)cc(O)c3C2=O)cc1 | – | – | 68.4 | – | ≥ 80 | – | – |
| COCOc1cc(/C=C2\Oc3ccccc3C2=O)ccc1OC | > 300 | 1 | 97.6 | > 300 | ≥ 80 | 60.3 | – |
| COCOc1cc(OC)ccc1/C=C1\Oc2ccccc2C1=O | > 250 | 8.2 | 58.3 | > 30.5 | ≥ 80 | – | – |
| COCOc1cc(OCOC)c2c(c1)O/C(=C\c1ccc(OC)cc1)C2=O | – | – | 95.2 | – | ≥ 80 | < 1 | – |
| COc1ccc(/C=C2\Oc3cc(OC(F)F)ccc3C2=O)cc1 | > 300 | 0.9 | 97.1 | > 333 | ≥ 80 | 69.9 | – |
| COc1ccc(/C=C2\Oc3cc(OCc4ccc(F)cc4)ccc3C2=O)cc1 | > 300 | 2.9 | 85.2 | > 104 | ≥ 80 | 14.5 | – |
| O=C1/C(=C/c2ccc(Cl)cc2)Oc2ccccc21 | – | – | 68.8 | – | ≥ 80 | – | – |
| O=c1c(O)c(-c2ccc(O)c(O)c2)oc2cc(O)cc(O)c12 [QUERCETIN] | – | – | – | – | – | – | EC50 [7]: 2.4 µM |

| Structure (SMILES) | CC50 at 72 h [1] [µM] | EC50 [2] [µM] | inhibition at 10 µM [3] [%] | selectivity ratio [4] | viability at 72 h, 250 µM [5] [%] | inhibition at 1 µM [6] [%] | other results |
| --- | --- | --- | --- | --- | --- | --- | --- |
| COc1ccc(/C=C2\Oc3cc(OCc4ccccc4)ccc3C2=O)cc1 | > 300 | 2.2 | 91 | > 136 | ≥ 80 | 36.1 | – |
| COc1cc(O)c2c(=O)c(OC)c(-c3ccc(OC)c(OC)c3)oc2c1 [RETUSIN] | – | – | – | – | – | – | EC50 [9]: 0.6 µM |
| O=c1cc(-c2ccccc2)oc2cc(O)c(O)c(O)c12 [BAICALEIN] | – | – | – | – | – | – | EC50 [10]: 1.2 µM; CC50 [11]: > 200 µM |
| COCOc1ccc2c(c1OCOC)O/C(=C\c1ccc(OC)cc1)C2=O | – | – | 58.2 | – | ≥ 80 | < 1 | – |
| COCOc1cc(/C=C2\Oc3cc(OC)ccc3C2=O)ccc1OC | > 1000 | 2.3 | 88.2 | > 435 | ≥ 80 | 34.1 | – |
| COc1ccc(/C=C2\Oc3cc4c(cc3C2=O)OCO4)cc1 | > 1000 | 2 | 95.8 | > 500 | ≥ 80 | 32.5 | – |
| COc1ccc(/C=C2\Oc3cc(O)ccc3C2=O)cc1O | > 250 | 5.6 | 24.4 | > 44.6 | ≥ 80 | 70.4 | – |
| COCOc1ccc2c(c1)O/C(=C\c1ccc(OC)cc1OCOC)C2=O | 976 | 0.35 | 96.2 | 2440 | ≥ 80 | 82.5 | Ratio EC50 [12]: 2; Ratio EC50 [13]: 3 |
| O=c1c(O)c(-c2cc(O)c(O)c(O)c2)oc2cc(O)cc(O)c12 [MYRICETIN] | – | – | – | – | – | – | EC50 [7]: 0.9 µM |
| Cc1cccc(C)c1OCC(=O)N[C@@H](Cc1ccccc1)[C@@H](O)C[C@H](Cc1ccccc1)NC(=O)[C@H](C(C)C)N1CCCNC1=O [LOPINAVIR] | – | – | – | – | – | – | EC50 [14]: 5 µM |
| COc1ccc2c(c1)O/C(=C\c1ccc(O)cc1)C2=O | > 300 | 2.8 | 88.3 | > 107 | ≥ 80 | 25 | – |
| O=c1cc(-c2ccc(O)cc2)oc2cc(O)cc(O)c12 [APIGENIN] | – | – | – | – | – | – | EC50 [7]: 5.1 µM |
| COc1ccc(/C=C2\Oc3c(ccc(O)c3O)C2=O)cc1 | > 300 | 4.6 | 62.2 | > 65.2 | ≥ 80 | 25.9 | – |
| COc1ccc(/C=C2\Oc3ccccc3C2=O)cc1 [4'-METHOXY-AURONE] | – | – | 66.9 | – | ≥ 80 | 29.2 | – |
| CC(C)c1nc(CN(C)C(=O)N[C@H](C(=O)N[C@@H](Cc2ccccc2)C[C@H](O)[C@H](Cc2ccccc2)NC(=O)OCc2cncs2)C(C)C)cs1 [RITONAVIR] | – | – | – | – | – | – | EC50 [15]: 5 µM |
| COc1cc(O)c2c(=O)c(OC)c(-c3ccc(O)cc3)oc2c1 [KUMATAKENIN] | – | – | – | – | – | – | EC50 [9]: 0.3 µM |
| COCOc1ccc2c(c1)O/C(=C\c1ccc(OC)cc1)C2=O | > 1000 | 0.58 | 98 | > 1670 | ≥ 80 | 77.6 | – |
| COc1ccc(/C=C2\Oc3cc(OC)ccc3C2=O)cc1 | > 300 | 1.5 | 94.8 | > 200 | ≥ 80 | 46.5 | – |
